Columns and labels:
[1] = tested on: T cell avatar A_4_8; test: T cell avatar NanoLuciferase response to synthetic peptide; assay type: cell-based, human; conditions: highest concentration tested 20 μM
Text: (§1) Briefly, we used CRISPR/Cas9 to generate a variant of the human T cell line Jurkat that was deficient in TRAC, TRBC, and CD4. […] This parental Jurkat line was then transduced with the TRAV and TRBV constructs that express the TRAV and TRBV genes that form the TCR expressed by human islet-infiltrating CD4^+ T cells. […] Transduced cells expressing CD3 and TCR were purified by flow cytometry or magnetic bead enrichment. Briefly, cells were resuspended in viral supernatant at 1–2 × 10^6/ml with 5 μg/ml polybrene. Cells were centrifuged at 1,200 rpm (300 g) for 60 min at room temperature, then diluted 1:1 in fresh medium and incubated overnight at 37 °C, 5% CO2. Flow cytometry was performed on a Becton Dickinson LSR Fortessa to determine the proportion of CD3 and TCR expressing cells. The following antihuman mAbs were used for FACS staining: CD3-PE (UCHT1, BD Biosciences), and anti-TCRαβ-AF647 (IP26, BioLegend). Cells were stained with the appropriate mAb in phosphate buffered saline (PBS) 0.1% foetal bovine serum (FBS) for 20 min on ice, then washed twice. Dead cells were excluded by propidium iodide staining. Compensation settings were determined using single-color controls. TCR and CD3 expressing cells were purified by FACS or using REALease CD3 Microbead Kit (Miltenyi) following the manufacturer's instructions. All Jurkat T cell avatars used were >85% CD3^+/TCR^+.
(§2) The HIP super-pool bacteria were cultured from frozen glycerol stock in LB media with antibiotics at 37 °C with agitation 210 rpm. The overnight HIP-expressing bacteria cultures were diluted to an OD600 of 0.06 and grown in 48-well plates in 200 μl LB medium with antibiotics until an OD600 of 0.5 was reached. […] After 22–24 h of coculture, the NanoLuciferase activity was measured using the Nano-Glo Luciferase assay (Promega) according to the manufacturer's instructions. Luminescence was measured on a plate reader (Enspire Perkin Elmer). Responses are reported as the Δluciferase, which is calculated by subtracting the average background (no antigen) luciferase reading measured in the negative control cultures from the response measured in the other treatments.
(§3) Peptides (Genscript) were dissolved in dimethyl sulfoxide (DMSO) to 5.0 mM, aliquoted and stored at −80 °C. The CD4^+ T cell avatars' responses to peptides were measured as described above; except synthetic peptides were used as antigens, instead of E. coli and the antigen/EBV cells were not cultured overnight before the T cell avatars were added. A T cell's response to antigen was measured as luciferase activity using the Nano-Glo Luciferase assay system (Promega) according to the manufacturer's instructions (as above). The HLA-restriction of the HIP-specific CD4^+ T cell clones was determined in a two-step process as described previously ([10]). […]

[2] = tested on: T cell avatar A_4_7; test: as above; assay type: cell-based, human; conditions: highest concentration tested 20 μM
Text: as §1, §2, §3

[3] = tested on: T cell avatar A_4_2 (Jurkat expressing TCR from human islet-infiltrating CD4+ T cell, Donor A); test: as above; assay type: cell-based; conditions: highest concentration tested 20 μM
Text: Briefly, we used CRISPR/Cas9 to generate a variant of the human T cell line Jurkat that was deficient in TRAC, TRBC, and CD4. […] This parental Jurkat line was then transduced with the TRAV and TRBV constructs that express the TRAV and TRBV genes that form the TCR expressed by human islet-infiltrating CD4^+ T cells. […] Transduced cells expressing CD3 and TCR were purified by flow cytometry or magnetic bead enrichment. Briefly, cells were resuspended in viral supernatant at 1–2 × 10^6/ml with 5 μg/ml polybrene. Cells were centrifuged at 1,200 rpm (300 g) for 60 min at room temperature, then diluted 1:1 in fresh medium and incubated overnight at 37 °C, 5% CO2. […] Compensation settings were determined using single-color controls. […]
as §2, with “rpm.” for “rpm. The overnight HIP-expressing bacteria cultures were diluted to an OD600 of 0.06 and grown in 48-well plates in 200 μl LB medium with antibiotics until an OD600 of 0.5 was reached.”, “treatments. […]” for “treatments.”

[4] = tested on: HIP-specific T cell avatars; test: T cell avatar NanoLuciferase response, panel of HIP-specific avatars; assay type: cell-based, human; conditions: nine HIP-specific avatars; highest concentration 20 μM; weak left-hand response in 3 of 9 avatars; very weak C-peptide response in three cases
Experimental: as §2, with “reached. Protein expression was induced by adding isopropyl β-D-thiogalactopyranoside (2.0 mM, Sigma). Incubation was continued for another 4 h at 37 °C in a shaking incubator.” for “reached.”
Peptides (Genscript) were dissolved in dimethyl sulfoxide (DMSO) to 5.0 mM, aliquoted and stored at −80 °C. The CD4^+ T cell avatars' responses to peptides were measured as described above; except synthetic peptides were used as antigens, instead of E. coli and the antigen/EBV cells were not cultured overnight before the T cell avatars were added. […] The T cell avatar's responses were measured as above. […]

[5] = tested on: T cell avatar A_4_6; conditions: previous characterisation, clone A3.10 (A_4_6); ref [15, 34]; cited from earlier work
Text: (§4) Supplement pgae491_supplementary_data.docx, table 6: Supplementary Table 6. Summary of previous characterisation of human islet-infiltrating CD4^+ T cells. | column: HLA-restriction

[6] = tested on: T cell avatar A_4_5; conditions: previous characterisation, clone A4.5 (A_4_5); ref [15, 34]; cited from earlier work
Text: as §4

[7] = tested on: T cell avatar K_4_161; test: T cell avatar NanoLuciferase response to synthetic peptide; assay type: cell-based, human
Text: as §1, §2, §3

[8] = tested on: T cell avatar A_4_8; conditions: previous characterisation, clone A5.8 (A_4_8); ref [5]; cited from earlier work
Text: as §4

[9] = tested on: T cell avatar A_4_2 (Jurkat expressing TCR from human islet-infiltrating CD4+ T cell, Donor A); conditions: previous characterisation, clone A1.9 (A_4_2); ref [5, 34]; cited from earlier work
Text: as §4

[10] = tested on: T cell avatar A_4_7; conditions: previous characterisation, clone A5.5 (A_4_7); ref [5]; cited from earlier work
Text: as §4

**Q.** With “EAEDLQVGQVELGGGPGAGSLQPLALEGSLQ [C-peptide, full-length proinsulin C-peptide]” as the substance, how does the “response to full-length C-peptide (Δluciferase)” value [1] read?
**A.** Its value is “very weak”.

**Q.** And the “response to full-length C-peptide (Δluciferase)” value [2]?
**A.** Its value is “very weak”.

**Q.** And the “response to full-length C-peptide (Δluciferase)” value [3]?
**A.** Its value is “very weak”.

**Q.** And the “T cell avatar response (Δluciferase) to native peptide” value [4]?
**A.** The value was “did not respond”.

**Q.** For “GQVELGGG-NAVEVLK [HIP-6, previously reported C-peptide-IAPP2 HIP]”, which HLA-restriction [5] is on record?
**A.** Its HLA-restriction is “HLA-DQ8”.

**Q.** What about the HLA-restriction [6] of the same substance?
**A.** The HLA-restriction was “HLA-DQ8”.

**Q.** Which HLA restriction ([7]; blocking mAbs and single-HLA APC lines, peptide 1.0 μM) does the source give for “REAEDLQVG-VCGERGF [HIP-K, hybrid insulin peptide formed by fusion of proinsulin fragments]” here?
**A.** Its HLA restriction is “DQ8”.

**Q.** And the EC50 ([7]; synthetic peptide titration, autologous EBV B cells, NanoLuciferase, triplicate)?
**A.** Its EC50 is > 20 µM.

**Q.** Which results are given for VELGGGPGA?
**A.** HLA-restriction [8]: HLA-DQ8; HLA-restriction [9]: HLA-DQ8; HLA-restriction [10]: HLA-DQ8

Source: paper PMC11565411, “Proinsulin C-peptide is a major source of HLA-DQ8 restricted hybrid insulin peptides recognized by human islet-infiltrating CD4^+ T cells” (PNAS Nexus, 2024)
